Reference: patent publication US10259810B2, “N-sulfonylated pyrazolo[3,4-b]pyridin-6-carboxamides and method of use” (AbbVie S.à.r.l., priority 2015, dated 2019)

Columns and labels:
CFTR ΔF508 [1] = target: T1, CFTR ΔF508 (Homo sapiens, UniProt P13569, DEL508-508); assay: Acute TECC assay, primary bronchial epithelial cells of CF patients homozygous for CFTR ΔF508, with and without co-corrector; format: cell-based; conditions: 24 h, Ieq based on maximum current, normalized to DMSO and positive control; for % Activity at 3 μM (Ieq*): 3 μM compound
T1 construct: bronchial epithelial cells isolated from CF patients homozygous for the CFTR ΔF508 mutation; McGill University; Asterand; University of North Carolina hAEC-CF; host or cells: primary human bronchial epithelial cells from CF patients homozygous for ΔF508, differentiated at air-liquid interface
Description: Primary Bronchial Epithelial Cells Protocol
The TECC (Tranepithelial Clamp Circuit, EP-design) assay measures the functionality of the cystic fibrosis Transmembrane Conductance regulator (CFTR) by measuring the short circuit current (Isc) generated over the basolateral and apical membrane of lung epithelial cells. In TECC the transepithelial potential PD and transepithelial resistance (Rt) are measured in an open circuit and transformed to Ieq using Ohm's law. 24 Wells can be measured simultaneously allowing a higher throughput compared to Ussing chambers.
For this purpose, bronchial epithelial cells isolated from CF patients homozygous for the CFTR ΔF508 mutation (hAEC-CF, Epithelix, Geneva, Switzerland; McGill University, Montreal, Qc; Asterand, Detroit, Mich.; University of North Carolina, Chapel Hill, N.C.) are plated on type IV collagen-coated Transwell® supports (Costar). Human airway epithelia are generated by provision of an air-liquid interface for 21 days to form well-differentiated polarized cultures that resemble in vivo pseudo-stratified ciliated epithelium (Fulcher, M. L., Gabriel, S., Burns, K. A., Yankaskas, J. R., Randell, S. H., 2005. Well-differentiated human airway epithelial cell cultures. Methods Mol. Med. 107, 183-206). The differentiated cells are treated with test corrector compound(s) (corrector alone or in combination with co-corrector, 4-[(2R,4R)-4-({[1-(2,2-difluoro-1,3-benzodioxol-5-yl)cyclopropyl]carbonyl}amino)-7-methoxy-3,4-dihydro-2H-chromen-2-yl]benzoic acid (“acute”) or test corrector compounds, co-corrector and potentiator, N-(3-carbamoyl-5,5,7,7-tetramethyl-4,7-dihydro-5H-thieno[2,3-c]pyran-2-yl)-1H-pyrazole-5-carboxamide (“chronic”) for 24 hours basolaterally to allow sufficient expression of properly folded CFTR protein on the membrane. All compound plates contained negative controls (DMSO) and positive controls (0.15 μM, 4-[(2R,4R)-4-({[1-(2,2-difluoro-1,3-benzodioxol-5-yl)cyclopropyl]carbonyl}amino)-7-(difluoromethoxy)-3,4-dihydro-2H-chromen-2-yl]benzoic acid).
For electrophysiological recording of the “acute” experiments, the human airway epithelia are mounted in the TECC heating plate and kept at 37° C. The epithelia are bathed in a NaCl-Ringer solution (120 mM NaCl, 25 mM NaHCO3, 1.2 mM CaCl2, 1.2 mM MgCl2, 0.8 mM KH2PO4, 0.8 mM K2HPO4, pH 7.4, 5 mM glucose) on both the basolateral and apical sides. Apical amiloride is used to inhibit the endogenous epithelial sodium channel (ENaC) currents while forskolin is applied on both apical and basolateral side to stimulate CFTR. CFTR activity is measured by addition of forskolin followed by addition of a potentiator, N-(3-carbamoyl-5,5,7,7-tetramethyl-4,7-dihydro-5H-thieno[2,3-c]pyran-2-yl)-1H-pyrazole-5-carboxamide, on both sides. The potentiator, 3-amino-N-[(2S)-2-hydroxypropyl]-5-{[4-(trifluoromethoxy)phenyl]sulfonyl}pyridine-2-carboxamide, was used in place of N-(3-carbamoyl-5,5,7,7-tetramethyl-4,7-dihydro-5H-thieno[2,3-c]pyran-2-yl)-1H-pyrazole-5-carboxamide in some assays. Measurements are done during a 20 minute timeframe with recordings every 2 minutes. […] Inhibitor-172, an inhibitor specific for CFTR, is used to test the specificity of the tested compounds. Raw data were normalized to percentage activity values using the equation: 100×(Sample−Negative control)/(Positive control−Negative Control).

CFTR ΔF508 [2] = target: T1, CFTR ΔF508; assay: Chronic TECC assay, primary bronchial epithelial cells of CF patients homozygous for CFTR ΔF508 (corrector, co-corrector and potentiator); format: cell-based; conditions: chronic TECC, Ieq = calculations based on the maximum current
How it was run: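 Primary bronchial epithelial cells from ΔF508-homozygous CF patients on collagen IV-coated Transwells were chronically treated with test compound plus corrector and potentiator, which were re-added before recording. Ieq was derived from PD and Rt in NaCl-Ringer, pH 7.4, at 37° C, with apical amiloride and bilateral forskolin, recorded every 2 min over 20 min. Ieq increase was normalized to controls, and EC50 was taken from per-well concentrations.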

T1 sequence (P13569 with tags, fused parts or gaps DEL508-508): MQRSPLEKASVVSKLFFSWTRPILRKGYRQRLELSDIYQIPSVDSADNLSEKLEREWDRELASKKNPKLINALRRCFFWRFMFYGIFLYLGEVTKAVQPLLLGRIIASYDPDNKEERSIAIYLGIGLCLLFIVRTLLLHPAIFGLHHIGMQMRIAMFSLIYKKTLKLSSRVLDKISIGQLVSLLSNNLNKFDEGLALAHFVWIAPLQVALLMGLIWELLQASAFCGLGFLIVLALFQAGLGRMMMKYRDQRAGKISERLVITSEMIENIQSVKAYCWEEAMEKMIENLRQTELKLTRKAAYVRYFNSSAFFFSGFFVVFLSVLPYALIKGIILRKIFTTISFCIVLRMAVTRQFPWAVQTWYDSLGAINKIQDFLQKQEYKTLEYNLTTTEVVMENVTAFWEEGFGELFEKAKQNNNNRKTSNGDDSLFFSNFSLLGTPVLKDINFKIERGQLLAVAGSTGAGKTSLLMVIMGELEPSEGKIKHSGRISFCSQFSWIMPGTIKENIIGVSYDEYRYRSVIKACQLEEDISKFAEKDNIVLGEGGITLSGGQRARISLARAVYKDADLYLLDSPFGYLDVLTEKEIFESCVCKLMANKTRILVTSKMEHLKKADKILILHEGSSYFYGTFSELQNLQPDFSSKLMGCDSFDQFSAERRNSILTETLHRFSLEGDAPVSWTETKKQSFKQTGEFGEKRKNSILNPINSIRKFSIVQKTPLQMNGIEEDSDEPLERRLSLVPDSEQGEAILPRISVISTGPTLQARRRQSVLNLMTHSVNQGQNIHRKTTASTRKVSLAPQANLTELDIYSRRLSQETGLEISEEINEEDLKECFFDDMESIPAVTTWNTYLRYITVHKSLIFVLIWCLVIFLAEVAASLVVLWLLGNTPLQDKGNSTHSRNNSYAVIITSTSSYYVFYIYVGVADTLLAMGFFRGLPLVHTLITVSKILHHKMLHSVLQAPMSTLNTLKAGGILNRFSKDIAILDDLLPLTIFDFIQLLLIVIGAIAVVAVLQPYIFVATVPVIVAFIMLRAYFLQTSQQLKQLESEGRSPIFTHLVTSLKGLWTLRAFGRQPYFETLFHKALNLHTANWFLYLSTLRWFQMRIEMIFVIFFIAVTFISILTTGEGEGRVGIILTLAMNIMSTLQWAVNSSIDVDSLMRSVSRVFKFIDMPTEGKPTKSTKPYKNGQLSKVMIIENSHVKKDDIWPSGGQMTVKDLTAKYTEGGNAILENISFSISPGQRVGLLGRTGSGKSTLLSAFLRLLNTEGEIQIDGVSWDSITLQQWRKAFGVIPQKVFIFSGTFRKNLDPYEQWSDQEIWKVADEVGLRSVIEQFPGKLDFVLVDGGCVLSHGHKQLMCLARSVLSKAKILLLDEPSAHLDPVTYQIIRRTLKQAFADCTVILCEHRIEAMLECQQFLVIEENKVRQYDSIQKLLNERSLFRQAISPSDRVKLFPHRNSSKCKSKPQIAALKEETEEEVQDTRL

| Structure (SMILES) | % Activity at 3 μM (Ieq*) (CFTR ΔF508 [1]; without co-corrector) [%] | % Activity at 10 μM (Ieq*) (CFTR ΔF508 [1]; 10 μM compound, without co-corrector) [%] | EC50 (CFTR ΔF508 [2]; read-out: EC50 (nM) (Ieq*)) | % Activity at 1 μM (Ieq*) (CFTR ΔF508 [2]; test compound at 1 μM) [%] | % Activity at 3 μM with co-corrector (Ieq*) (CFTR ΔF508 [1]; 3 μM compound with co-corrector) [%] |
| --- | --- | --- | --- | --- | --- |
| CC(C)c1nn(-c2cccc(N3CCC3)c2)c2nc(C(=O)NS(C)(=O)=O)cc(-c3ccc(N4CCOCC4)cc3)c12 [Compound 10, 1-[3-(azetidin-1-yl)phenyl]-N-(methanesulfonyl)-4-[4-(morpholin-4-yl)phenyl]-3-(propan-2-yl)-1H-pyrazolo[3,4-b]pyridine-6-carboxamide] | 591.84 | – | – | – | – |
| CC(C)c1nn(C2CCCCC2)c2nc(C(=O)NS(C)(=O)=O)cc(-c3cnc(N4CCOCC4)nc3)c12 [Compound 11, 1-cyclohexyl-N-(methanesulfonyl)-4-[2-(morpholin-4-yl)pyrimidin-5-yl]-3-(propan-2-yl)-1H-pyrazolo[3,4-b]pyridine-6-carboxamide] | 351 | – | – | – | – |
| Cc1nn(-c2ccccc2)c2nc(C(=O)NS(C)(=O)=O)cc(N3CCCCC3)c12 [Compound 13, N-(methanesulfonyl)-3-methyl-1-phenyl-4-(piperidin-1-yl)-1H-pyrazolo[3,4-b]pyridine-6-carboxamide] | 74.32 | 174.53 | – | – | – |
| CS(=O)(=O)NC(=O)c1cc(-c2ccc(N3CCC(C#N)CC3)nc2)c2c(C3CCC3)nn(C3CCCCC3)c2n1 [Compound 104, 4-[6-(4-cyanopiperidin-1-yl)pyridin-3-yl]-3-cyclobutyl-1-cyclohexyl-N-(methanesulfonyl)-1H-pyrazolo[3,4-b]pyridine-6-carboxamide] | – | – | < 30 | 720 | 102.36 |
